Results published in article PMC9886266, “New [1,2,4]triazolo[4,3-c]quinazolines as intercalative Topo II inhibitors: Design, synthesis, biological evaluation, and in silico studies” (PLOS ONE, 2023).

Tests used:
[1] = tested on: Activated Calf Thymus DNA; assay: DNA/methyl green assay (DNA intercalation); assay type: binding
Procedure: The most promising members (13a, 14a, 16, 17, 18, 19, and 20) were further investigated for their binding affinity against DNA. […] The results of DNA-binding affinities were reported in Table 1 as IC50 values calculated from the concentration-inhibition response curve.
Activated Calf Thymus DNA (Merk, Germany) was treated with methyl green (Merk, Germany), then the synthesized compounds were applied to displace the methyl green dye, producing equivalent color.
After that, the DNA was run on 1% agarose gel in BioRad gel electrophoresis system for 1–2 h followed by staining with GelRedTM stain for 2 h and destained for 15 min with TAE buffer. The gel was imaged via BioRad’s Gel DocTMEZ system. Both supercoiled and linear strands DNA were incorporated in the gel as markers for DNA-Topo II intercalators. The results of IC50 values were calculated using the GraphPad Prism version 7. Each reaction was performed in duplicate, and at least three independent determinations of each IC50 were made.
S2.3. DNA/Methyl Green Assay […]
methyl green dye method described by Burres et al. Activated Calf Thymus DNA (Merk, Germany) was treated with methyl green (Merk, Germany), then the synthesized compounds were applied to displace the methyl green dye, producing equivalent color. […]

BAX = assay: Western blot, BAX level; assay type: cell-based, human; conditions: HCT-116, 2.44 μM, 48 h; control = 1.00
Procedure: In comparison to the control, compound 16 elevated the level of the proapoptotic protein (BAX) by 2.18 times. […] Furthermore, compound 16 enhanced the BAX/Bcl-2 ratio by 4.38-fold in comparison to control cells.
The effects of compound 16 on the expression of BAX, and Bcl‐2 were determined using Western blot analysis [62–64]as described in Electronic Supplementary Material S2.7 in S1 Appendix. […]
for 48 h. Then, the cells were fixed in 70% ethanol at 4 °C for 12 h. After that, the cells were washed with cold PBS, incubated with 100 μl RNase A at 37 °C for 30 min, and stained with 400 μl PI in the dark at room temperature for further 30 min. The stained cells were measured using Epics XL-MCL™ Flow Cytometer (Beckman Coulter), and the data were analyzed using Flowing software (version 2.5.1, Turku Centre for Biotechnology, Turku, Finland).
S2.6. Flow cytometry analysis for apoptosis
Flow cytometry cell apoptosis analysis was used to investigate the apoptotic effect of the synthesized compounds. […] The stained cells were measured using Epics XL-MCL™ Flow Cytometer and analyzed using Flowing software. […]
The proteins expression of BAX, and Bcl‐2 were determined using Western blot analysis. […] Total protein concentrations in the supernatant were determined colorimetrically using the Pierce 660 nm Protein Assay method (Thermo Fisher Scientific, Rockford, IL), with BSA as the standard. […]

## CCCNc1nc2ccccc2c2nnc(C(F)(F)F)n12 [Compound 16, N-Propyl-3-(trifluoromethyl)-[1,2,4]triazolo[4,3-c]quinazolin-5-amine]
[1]; 50% inhibition concentration of DNA/methyl green assay, read-out: DNA/Methyl green (IC50)
  IC50: 10.2 ± 0.4 µM
[1]; log of drug concentration in uM, supplement curve fit
  LogIC50 (best-fit value, DNA/Topo-II Inhibition (%) curve): 1.011
[1]; supplement curve fit
  HillSlope (best-fit value, DNA/Topo-II Inhibition (%) curve): 0.3743
BAX
  Protein expression (normalized to β-actin) BAX: 2.18 ± 0.12
